Test results published in paper PMC2263054, “Functional evolution of the vitamin D and pregnane X receptors” (BMC Evolutionary Biology, 2007).

How the values were obtained:
[1] = test system: testosterone 6β-hydroxylation activity (CYP3A-like activity); test: testosterone hydroxylation (HPLC) in zebrafish primary hepatocytes
Method: (§1) The cells are cultured at 26°C in ambient atmosphere.
100 μL of sample, calibration standard, or quality material standard were pipetted into separate microcentrifuge tubes and mixed with 100 μL of methanol. Samples were vortexed and centrifuged at 13,000 rpm for 4 min. The supernatant was then injected into the HPLC.
The flow rate was 1.2 mL/min and total run time was 25 min.

[2] = test system: zebrafish PXR; details: luciferase reporter in HepG2 cells, normalized to 20 μM androstanol
[3] = test system: ethoxyresorufin O-deethylase (EROD) activity (CYP1A-like activity); test: EROD assay in zebrafish primary hepatocytes; details: zebrafish primary hepatocytes; DIM at concentrations of 2 μM and greater
Method: as §1

SMILES: C[C@H](CCCC(CO)COS(=O)(=O)O)[C@H]1CC[C@H]2[C@@H]3[C@H](O)C[C@H]4C[C@H](O)CC[C@]4(C)[C@H]3C[C@H](O)[C@]12C (stereo partly drawn) [5α-Cyprinol 27-sulfate]
- increase in 6β-hydroxylation activity compared to vehicle-treated control [1]: 15–20%
- activation of recombinant zebrafish PXR [2]: all activate recombinant zebrafish PXR
- effect on EROD activity [3]: found not to affect EROD activity
